Among the data in patent publication US20250179066A1, “ZWITTERIONIC ANTIBACTERIAL COMPOUNDS” (Hoffmann-La Roche Inc., priority 2022, published 2025) are IC90 values, retold here.

SMILES strings stand for the structures. Where a name gives a salt, the structure may show the parent alone.

The test deals with Acinetobacter baumannii ATCC17961. Put plainly: Antimicrobial susceptibility testing: 90% growth inhibitory concentration (IC90) determination. To be noted: Acinetobacter baumannii, ATCC17961, 16 h, 90% growth inhibitory concentration against Acinetobacter baumannii ATCC17961, Iso-Sensitest broth, OD 600 nm over 16 h; read-out: ATCC 17961 IC90. The format is cell-based. The essentials: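 OD600 monitored each minute over 16 h at 35±2° C for bacteria (~5×10^5 CFU/mL final) in Iso-Sensitest medium with 10-point twofold compound series (e.g. 10-0.0195 μM final). Concentration giving 90% growth inhibition in log phase reported as IC90.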
As a reminder, the IC90 is the concentration at which the effect reaches the 90% level. Regarding `Cn1c(-c2cn(-c3cc4[nH]c(C(=O)N5CC6CNCC(C5)O6)cc4cn3)nc2C(F)(F)F)cnc1C(=O)Nc1ccc(C(=O)N2CCN(C(=O)[C@H]3CC[N@+](CC(=O)O)(CC4CNC4)CC3)CC2)c(Cl)c1` [Example 116, cis-2-[1-(azetidin-3-ylmethyl)-4-[4-[2-chloro-4-[[1-methyl-5-[1-[2-(9-oxa-3,7-diazabicyclo[3.3.1]nonane-3-carbonyl)-1H-pyrrolo[3,2-c]pyridin-6-yl]-3-(trifluoromethyl)pyrazol-4-yl]imidazole-2-carbonyl]amino]benzoyl]piperazine-1-carbonyl]piperidin-1-ium-1-yl]acetic acid. 1:1 2,2,2-trifluoroacetic acid. 1:1 2,2,2-trifluoroacetate], the concentration for an effect of 90% (IC90) was determined as 213 nM. Turning to `CN(C)C(=O)c1cc2cnc(-n3cc(-c4cnc(C(=O)Nc5ccc(C(=O)N6CCN(C(=O)[C@H]7CC[N@+](CC(=O)O)(CC8CNC8)CC7)CC6)c(Cl)c5)n4C)c(C(F)(F)F)n3)cc2[nH]1` [Example 123, cis-2-[1-(azetidin-3-ylmethyl)-4-[4-[2-chloro-4-[[5-[1-[2-(dimethylcarbamoyl)-1H-pyrrolo[3,2-c]pyridin-6-yl]-3-(trifluoromethyl)pyrazol-4-yl]-1-methyl-imidazole-2-carbonyl]amino]benzoyl]piperazine-1-carbonyl]piperidin-1-ium-1-yl]acetic acid. 1:1 2,2,2-trifluoroacetate], the concentration for an effect of 90% (IC90) came to 216 nM. The result for `Cn1c(-c2cn(-c3ccc(NCCCN)cn3)nc2C(F)(F)F)cnc1C(=O)Nc1ccc(C(=O)N2CCN(C(=O)[C@H]3CC[N@+](CC(=O)O)(CC4CNC4)CC3)CC2)c(Cl)c1` [Example 15, cis-2-[4-[4-[4-[[5-[1-[5-(3-aminopropylamino)-2-pyridyl]-3-(trifluoromethyl)pyrazol-4-yl]-1-methyl-imidazole-2-carbonyl]amino]-2-chloro-benzoyl]piperazine-1-carbonyl]-1-(azetidin-3-ylmethyl)piperidin-1-ium-1-yl]acetic acid. 1:1 2,2,2-trifluoroacetic acid. 1:1 2,2,2-trifluoroacetate] reads 210 nM; that for `Cn1c(-c2cn(-c3ccc(N)cn3)nc2C(F)(F)F)cnc1C(=O)Nc1ccc(C(=O)N2CCN(C(=O)CCC[N+](CCCN)(CCCN)CC(=O)O)CC2)c(Cl)c1` [Example 35, bis(3-aminopropyl)-[4-[4-[4-[[5-[1-(5-amino-2-pyridyl)-3-(trifluoromethyl)pyrazol-4-yl]-1-methyl-imidazole-2-carbonyl]amino]-2-chloro-benzoyl]piperazino]-4-keto-butyl]-(carboxymethyl)ammonium. 1:1 2,2,2-trifluoroacetic acid. 1:1 2,2,2-trifluoroacetate], 400 nM. The result for `COc1ccc(-n2cc(-c3cnc(C(=O)Nc4ccc(C(=O)N5CCN(C(=O)C6CC[N+](CC(=O)O)(CC7CNC7)CC6)CC5)c(Cl)c4)n3C)c(C(F)(F)F)n2)cc1` (stereo not shown) [Example 37, 2-[1-(azetidin-3-ylmethyl)-4-[4-[2-chloro-4-[[5-[1-(4-methoxyphenyl)-3-(trifluoromethyl)pyrazol-4-yl]-1-methyl-imidazole-2-carbonyl]amino]benzoyl]piperazine-1-carbonyl]piperidin-1-ium-1-yl]acetic acid. 1:1 formate] reads 420 nM; that for `Cn1c(-c2cn(-c3ccc4[nH]ccc4n3)nc2C(F)(F)F)cnc1C(=O)Nc1ccc(C(=O)N2CCN(C(=O)CCC[N+](CCCN)(CCCN)CC(=O)O)CC2)c(Cl)c1` [Example 13, bis(3-aminopropyl)-(carboxymethyl)-[4-[4-[2-chloro-4-[[1-methyl-5-[1-(1H-pyrrolo[3,2-b]pyridin-5-yl)-3-(trifluoromethyl)pyrazol-4-yl]imidazole-2-carbonyl]amino]benzoyl]piperazino]-4-keto-butyl]ammonium. 1:1 2,2,2-trifluoroacetic acid. 1:1 2,2,2-trifluoroacetate], 200 nM; that for `Cn1c(-c2cn(-c3nccs3)nc2C(F)(F)F)cnc1C(=O)Nc1ccc(C(=O)N2CCN(C(=O)C3CC[N+](CC(=O)O)(CC4CNC4)CC3)CC2)c(Cl)c1` (stereo not shown) [Example 43, 2-[1-(azetidin-3-ylmethyl)-4-[4-[2-chloro-4-[[1-methyl-5-[1-thiazol-2-yl-3-(trifluoromethyl)pyrazol-4-yl]imidazole-2-carbonyl]amino]benzoyl]piperazine-1-carbonyl]piperidin-1-ium-1-yl]acetic acid. 1:1 formate], 460 nM.

On to `Cn1c(-c2cn(-c3cc4cc(CO)[nH]c4cn3)nc2C(F)(F)F)cnc1C(=O)Nc1ccc(C(=O)N2CCN(C(=O)[C@H]3CC[N@+](CC(=O)O)(CC4CNC4)CC3)CC2)c(Cl)c1` [Example 191, cis-2-[1-(azetidin-3-ylmethyl)-4-[4-[2-chloro-4-[[1-methyl-5-[1-(2-methylol-1H-pyrrolo[2,3-c]pyridin-5-yl)-3-(trifluoromethyl)pyrazol-4-yl]imidazole-2-carbonyl]amino]benzoyl]piperazine-1-carbonyl]piperidin-1-ium-1-yl]acetic acid. 1:1 2,2,2-trifluoroacetic acid], for which the 90% effect concentration (IC90) was found to be 315 nM. With `Cn1c(-c2cn(-c3sncc3N)nc2C(F)(F)F)cnc1C(=O)Nc1ccc(C(=O)N2CCN(C(=O)C3CC[N+](CC(=O)O)(CC4CNC4)CC3)CC2)c(Cl)c1` (stereo not shown) [Example 94, 2-[4-[4-[4-[[5-[1-(4-Aminoisothiazol-5-yl)-3-(trifluoromethyl)pyrazol-4-yl]-1-methyl-imidazole-2-carbonyl]amino]-2-chloro-benzoyl]piperazine-1-carbonyl]-1-(azetidin-3-ylmethyl)piperidin-1-ium-1-yl]acetic Acid.1:1 formate], the IC90 amounted to 1730 nM. As to `Cn1c(-c2cn(-c3ccc(O)cc3F)nc2C(F)(F)F)cnc1C(=O)Nc1ccc(C(=O)N2CCN(C(=O)[C@H]3CC[N@@+](CCCN)(CC(=O)O)CC3)CC2)c(F)c1` [Example 131, cis-2-[1-(3-aminopropyl)-4-[4-[2-fluoro-4-[[5-[1-(2-fluoro-4-hydroxy-phenyl)-3-(trifluoromethyl)pyrazol-4-yl]-1-methyl-imidazole-2-carbonyl]amino]benzoyl]piperazine-1-carbonyl]piperidin-1-ium-1-yl]acetic acid;formate], the concentration for an effect of 90% (IC90) came to 103 nM.

In the case of `Cn1c(-c2cn(-c3ccc4c(n3)CCN4)nc2C(F)(F)F)cnc1C(=O)Nc1ccc(C(=O)N2CCN(C(=O)C3CC[N+](CC(=O)O)(CC4CNC4)CC3)CC2)c(Cl)c1` (stereo not shown) [Example 61, 2-[1-(azetidin-3-ylmethyl)-4-[4-[2-chloro-4-[[5-[1-(2,3-dihydro-1H-pyrrolo[3,2-b]pyridin-5-yl)-3-(trifluoromethyl)pyrazol-4-yl]-1-methyl-imidazole-2-carbonyl]amino]benzoyl]piperazine-1-carbonyl]piperidin-1-ium-1-yl]acetic acid. 1:1 2,2,2-trifluoroacetate], the 90% effect concentration (IC90) worked out at 670 nM. For `Cn1c(-c2cn(-c3ccc(NC4CC4)cn3)nc2C(F)(F)F)cnc1C(=O)Nc1ccc(C(=O)N2CCN(C(=O)C3CC[N+](CC(=O)O)(CC4CNC4)CC3)CC2)c(Cl)c1` (stereo not shown) [Example 44, 2-[1-(azetidin-3-ylmethyl)-4-[4-[2-chloro-4-[[5-[1-[5-(cyclopropylamino)-2-pyridyl]-3-(trifluoromethyl)pyrazol-4-yl]-1-methyl-imidazole-2-carbonyl]amino]benzoyl]piperazine-1-carbonyl]piperidin-1-ium-1-yl]acetic acid. 1:1 formate], the IC90 came to 490 nM.

In the case of `Cn1c(-c2cn(-c3ccc(N)cc3F)nc2C(F)(F)F)cnc1C(=O)Nc1ccc(C(=O)N2CCN(C(=O)CCC[N+](C)(CC(=O)[O-])CC3CNC3)CC2)c(Cl)c1` (stereo not shown) [Example 195, 2-[[4-[4-[4-[[5-[1-(4-amino-2-fluoro-phenyl)-3-(trifluoromethyl)pyrazol-4-yl]-1-methyl-imidazole-2-carbonyl]amino]-2-chloro-benzoyl]piperazin-1-yl]-4-oxo-butyl]-(azetidin-3-ylmethyl)-methyl-ammonio]acetate], the 90% effect concentration (IC90) was determined as 330 nM. Regarding `Cn1c(-c2cn(-c3ccc4[nH]c(CC(N)=O)cc4n3)nc2C(F)(F)F)cnc1C(=O)Nc1ccc(C(=O)N2CCN(C(=O)[C@H]3CC[N@+](CC(=O)O)(CC4CNC4)CC3)CC2)c(Cl)c1` [Example 167, cis-2-[4-[4-[4-[[5-[1-[2-(2-amino-2-oxo-ethyl)-1H-pyrrolo[3,2-b]pyridin-5-yl]-3-(trifluoromethyl)pyrazol-4-yl]-1-methyl-imidazole-2-carbonyl]amino]-2-chloro-benzoyl]piperazine-1-carbonyl]-1-(azetidin-3-ylmethyl)piperidin-1-ium-1-yl]acetic acid;2,2,2-trifluoroacetate], the IC90 was 715 nM.

For `Cn1c(-c2cn(-c3ccc(NCCOC(F)F)cc3F)nc2C(F)(F)F)cnc1C(=O)Nc1ccc(C(=O)N2CCN(C(=O)[C@H]3CC[N@+](CC(=O)O)(CC4CNC4)CC3)CC2)c(Cl)c1` [Example 126, cis-2-[1-(azetidin-3-ylmethyl)-4-[4-[2-chloro-4-[[5-[1-[4-[2-(difluoromethoxy)ethylamino]-2-fluoro-phenyl]-3-(trifluoromethyl)pyrazol-4-yl]-1-methyl-imidazole-2-carbonyl]amino]benzoyl]piperazine-1-carbonyl]piperidin-1-ium-1-yl]acetic acid;formate], the IC90 is 176 nM. Consider `Cn1c(-c2cn(-c3cc4[nH]c(C(=O)N5CCNCC5)cc4cn3)nc2C(F)(F)F)cnc1C(=O)Nc1ccc(C(=O)N2CCN(C(=O)[C@H]3CC[N@+](CC(=O)O)(CC4CNC4)CC3)CC2)c(Cl)c1` [Example 118, cis-2-[1-(azetidin-3-ylmethyl)-4-[4-[2-chloro-4-[[1-methyl-5-[1-[2-(piperazine-1-carbonyl)-1H-pyrrolo[3,2-c]pyridin-6-yl]-3-(trifluoromethyl)pyrazol-4-yl]imidazole-2-carbonyl]amino]benzoyl]piperazine-1-carbonyl]piperidin-1-ium-1-yl]acetic acid. 1:1 2,2,2-trifluoroacetate], for which the 90% effect concentration (IC90) worked out at 213 nM.
